What was measured:
ECC12 = assay: cells; format: functional, cell-based; conditions: Homo sapiens
Description: SANGER: Inhibition of human ECC12 cell growth in a cell viability assay.

ECC4 = assay: cells; format: functional, cell-based; conditions: Homo sapiens;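 note: growth inhibition of ECC4 cells, read out with a cell viability assay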
Description: SANGER: Inhibition of human ECC4 cell growth in a cell viability assay.

EVSA-T = assay: cells; format: functional, cell-based, Homo sapiens; conditions: Homo sapiens, EVSA-T;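 note: growth inhibition of EVSA-T cells, read out with a cell viability assay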
Description: SANGER: Inhibition of human EVSA-T cell growth in a cell viability assay.

EW-12 = assay: SANGER: Inhibition of human EW-12 cell growth in a cell viability assay.; format: functional, cell-based
IM-9 = assay: SANGER: Inhibition of human IM-9 cell growth in a cell viability assay.; format: functional, cell-based
IMR-5 = assay: cells; format: functional, cell-based; conditions: Homo sapiens;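 note: growth inhibition of human IMR-5 cells, read out with a cell viability assay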
Description: SANGER: Inhibition of human IMR-5 cell growth in a cell viability assay.

IST-SL2 = assay: cells; format: functional, cell-based; conditions: Homo sapiens;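 note: growth inhibition of human IST-SL2 cells, read out by a cell viability assay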
Description: SANGER: Inhibition of human IST-SL2 cell growth in a cell viability assay.

Kasumi 1 = assay: cells; format: functional, cell-based; conditions: Homo sapiens;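 note: growth inhibition of human Kasumi-1 cells, read out by a cell viability assay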
Description: SANGER: Inhibition of human KASUMI-1 cell growth in a cell viability assay.

L-540 = assay: cells; format: functional, cell-based; conditions: Homo sapiens;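 note: growth inhibition of the human L-540 cell line, read out with a viability assay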
Description: SANGER: Inhibition of human L-540 cell growth in a cell viability assay.

LB647-SCLC = assay: cells; format: functional, cell-based; conditions: Homo sapiens;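 note: cell growth inhibition, read out by a viability assay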
Description: SANGER: Inhibition of human LB647-SCLC cell growth in a cell viability assay.

MRK-nu-1 = assay: cells; format: functional, cell-based; conditions: Homo sapiens;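 note: cell viability assay measuring growth suppression of human MRK-nu-1 cells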
Description: SANGER: Inhibition of human MRK-nu-1 cell growth in a cell viability assay.

NB1 = assay: cells; format: functional, cell-based; conditions: Homo sapiens;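 note: reduction of NB1 cell proliferation, read out with a viability assay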
Description: SANGER: Inhibition of human NB1 cell growth in a cell viability assay.

NCI-H128 = assay: SANGER: Inhibition of human NCI-H128 cell growth in a cell viability assay.; format: functional, cell-based
NCI-H187 = assay: cells; format: functional, cell-based; conditions: Homo sapiens;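 note: growth inhibition of NCI-H187 cells, read out as cell viability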
Description: SANGER: Inhibition of human NCI-H187 cell growth in a cell viability assay.

NCI-H1963 = assay: cells; format: functional, cell-based; conditions: Homo sapiens
Description: SANGER: Inhibition of human NCI-H1963 cell growth in a cell viability assay.

NCI-H2107 = assay: SANGER: Inhibition of human NCI-H2107 cell growth in a cell viability assay.; format: functional, cell-based
NCI-H2196 = assay: cells; format: functional, cell-based; conditions: Homo sapiens;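 note: cell viability assay used as the readout of growth inhibition in NCI-H2196 cells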
Description: SANGER: Inhibition of human NCI-H2196 cell growth in a cell viability assay.

NCI-H2227 = assay: cells; format: functional, cell-based; conditions: Homo sapiens;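 note: growth inhibition of the human cell line, read out with a cell viability assay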
Description: SANGER: Inhibition of human NCI-H2227 cell growth in a cell viability assay.

NCI-H322M = assay: cells; format: functional, cell-based; conditions: Homo sapiens;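 note: cell viability assay measuring inhibition of growth of human NCI-H322M cells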
Description: SANGER: Inhibition of human NCI-H322M cell growth in a cell viability assay.

NCI-H345 = assay: cells; format: functional, cell-based; conditions: Homo sapiens;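 note: growth inhibition of NCI-H345 cells measured with a cell viability assay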
Description: SANGER: Inhibition of human NCI-H345 cell growth in a cell viability assay.

NCI-H716 = assay: cells; format: functional, cell-based; conditions: Homo sapiens;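 note: growth inhibition of human NCI-H716 cells, measured by a cell viability assay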
Description: SANGER: Inhibition of human NCI-H716 cell growth in a cell viability assay.

OPM-2 = assay: cells; format: functional, cell-based; conditions: Homo sapiens;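 note: growth of OPM-2 cells measured with a viability assay, IC50 for suppression of proliferation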
Description: SANGER: Inhibition of human OPM-2 cell growth in a cell viability assay.

PF-382 = assay: cells; format: functional, cell-based; conditions: Homo sapiens
Description: SANGER: Inhibition of human PF-382 cell growth in a cell viability assay.

RL95-2 = assay: cells; format: functional, cell-based; conditions: Homo sapiens;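 note: RL95-2 growth inhibition determined through a cell viability readout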
Description: SANGER: Inhibition of human RL95-2 cell growth in a cell viability assay.

SIMA = assay: cells; format: functional, cell-based, Homo sapiens; conditions: Homo sapiens, SIMA;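 note: growth inhibition of SIMA cells, measured with a cell viability readout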
Description: SANGER: Inhibition of human SIMA cell growth in a cell viability assay.

SKM-1 = assay: SANGER: Inhibition of human SKM-1 cell growth in a cell viability assay.; format: functional, cell-based
SNU-C1 = assay: cells; format: functional, cell-based; conditions: Homo sapiens;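 note: growth inhibition of SNU-C1 human cells, read out by a cell viability assay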
Description: SANGER: Inhibition of human SNU-C1 cell growth in a cell viability assay.

BC1 cell line = assay: SANGER: Inhibition of human BC-1 cell growth in a cell viability assay.; format: functional, cell-based
BL-41 = assay: cells; format: functional, cell-based; conditions: Homo sapiens;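 note: growth inhibition of human BL-41 cells, read out with a cell viability assay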
Description: SANGER: Inhibition of human BL-41 cell growth in a cell viability assay.

CA46 = assay: cells; format: functional, cell-based; conditions: Homo sapiens;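 note: growth inhibition of human CA46 cells, read out by a cell viability assay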
Description: SANGER: Inhibition of human CA46 cell growth in a cell viability assay.

CAL-148 = assay: cells; format: functional, cell-based; conditions: Homo sapiens
Description: SANGER: Inhibition of human CAL-148 cell growth in a cell viability assay.

TE-15 = assay: cells; format: functional, cell-based; conditions: Homo sapiens;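 note: cell viability readout of growth inhibition in TE-15 cells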
Description: SANGER: Inhibition of human TE-15 cell growth in a cell viability assay.

UACC-812 = assay: cells; format: functional, cell-based; conditions: Homo sapiens
Description: SANGER: Inhibition of human UACC-812 cell growth in a cell viability assay.

YT = assay: cells; format: functional, cell-based; conditions: Homo sapiens
Description: SANGER: Inhibition of human YT cell growth in a cell viability assay.

CHP-126 = assay: cells; format: functional, cell-based; conditions: Homo sapiens
Description: SANGER: Inhibition of human CHP-126 cell growth in a cell viability assay.

EHEB = assay: cells; format: functional, cell-based; conditions: Homo sapiens;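 note: growth inhibition of human EHEB cells, read out with a cell viability assay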
Description: SANGER: Inhibition of human EHEB cell growth in a cell viability assay.

SMILES	IC50 (ECC12) [µM]	IC50 (ECC4) [µM]	IC50 (EVSA-T) [µM]	IC50 (EW-12) [µM]	IC50 (IM-9) [µM]	IC50 (IMR-5) [µM]	IC50 (IST-SL2) [µM]	IC50 (Kasumi 1) [µM]	IC50 (L-540) [µM]	IC50 (LB647-SCLC) [µM]	IC50 (MRK-nu-1) [µM]	IC50 (NB1) [µM]	IC50 (NCI-H128) [µM]	IC50 (NCI-H187) [µM]	IC50 (NCI-H1963) [µM]	IC50 (NCI-H2107) [µM]	IC50 (NCI-H2196) [µM]	IC50 (NCI-H2227) [µM]	IC50 (NCI-H322M) [µM]	IC50 (NCI-H345) [µM]	other results
CC1=C2C[C@H]3[C@@H](CC=C4C[C@@H](O)CC[C@@]43C)[C@@H]2CC[C@]12O[C@@H]1C[C@H](C)CN[C@H]1[C@H]2C [CYCLOPAMINE]	> 16	> 16	> 16	> 16	> 16	> 16	> 16	> 16	> 16	> 16	> 16	> 16	> 16	> 16	> 16	> 16	> 16	> 16	> 16	> 16	IC50 (NCI-H716): > 16 µM; IC50 (OPM-2): > 16 µM; IC50 (PF-382): > 16 µM; IC50 (RL95-2): > 16 µM; IC50 (SIMA): > 16 µM; IC50 (SKM-1): > 16 µM; IC50 (SNU-C1): > 16 µM; IC50 (BC1 cell line): > 16 µM; IC50 (BL-41): > 16 µM; IC50 (CA46): > 16 µM; IC50 (CAL-148): > 16 µM; IC50 (TE-15): > 16 µM; IC50 (UACC-812): > 16 µM; IC50 (YT): > 16 µM; IC50 (CHP-126): > 16 µM
CS(=O)(=O)CCNCc1ccc(-c2ccc3ncnc(Nc4ccc(OCc5cccc(F)c5)c(Cl)c4)c3c2)o1 [LAPATINIB]	0.0923	> 2	> 2	> 2	> 2	> 2	> 2	> 2	> 2	> 2	> 2	> 2	> 2	> 2	> 2	> 2	> 2	> 2	> 2	> 2	IC50 (EHEB): > 2 µM; IC50 (NCI-H716): > 2 µM; IC50 (OPM-2): > 2 µM; IC50 (PF-382): > 2 µM; IC50 (RL95-2): > 2 µM; IC50 (SIMA): > 2 µM; IC50 (SKM-1): > 2 µM; IC50 (SNU-C1): > 2 µM; IC50 (BC1 cell line): > 2 µM; IC50 (BL-41): > 2 µM; IC50 (CA46): > 2 µM; IC50 (CAL-148): > 2 µM; IC50 (TE-15): > 2 µM; IC50 (UACC-812): > 2 µM; IC50 (YT): > 2 µM; IC50 (CHP-126): > 2 µM
CCc1nc(N)nc(N)c1-c1ccc(Cl)cc1 [PYRIMETHAMINE]	2.56	> 20	> 20	> 20	> 20	> 20	11.4	> 20	10.5	> 20	> 20	> 20	> 20	> 20	> 20	> 20	> 20	> 20	> 20	> 20	IC50 (NCI-H716): > 20 µM; IC50 (OPM-2): > 20 µM; IC50 (PF-382): 14.6 µM; IC50 (RL95-2): 15.7 µM; IC50 (SIMA): > 20 µM; IC50 (SKM-1): > 20 µM; IC50 (SNU-C1): > 20 µM; IC50 (BC1 cell line): 5.1 µM; IC50 (BL-41): > 20 µM; IC50 (CA46): > 20 µM; IC50 (CAL-148): > 20 µM; IC50 (TE-15): > 20 µM; IC50 (UACC-812): > 20 µM; IC50 (YT): > 20 µM; IC50 (CHP-126): > 20 µM
O=C(/C=C/c1ccccc1)NC(NC(=S)Nc1cccc2cccnc12)C(Cl)(Cl)Cl (stereo unspecified) [SALUBRINAL]	> 16	> 16	12.9	> 16	> 16	13.8	11.8	> 16	16	> 16	7.75	> 16	> 16	> 16	> 16	> 16	> 16	> 16	> 16	> 16	IC50 (NCI-H716): > 16 µM; IC50 (OPM-2): > 16 µM; IC50 (PF-382): > 16 µM; IC50 (RL95-2): > 16 µM; IC50 (SIMA): > 16 µM; IC50 (SKM-1): > 16 µM; IC50 (SNU-C1): > 16 µM; IC50 (BC1 cell line): 15.2 µM; IC50 (BL-41): 9.78 µM; IC50 (CA46): > 16 µM; IC50 (CAL-148): > 16 µM; IC50 (TE-15): > 16 µM; IC50 (UACC-812): > 16 µM; IC50 (YT): > 16 µM; IC50 (CHP-126): > 16 µM

— ChEMBL document CHEMBL1201861, “Genomics of Drug Sensitity in Cancer screening data, Wellcome Trust Sanger Institute”
